Test results as given in ChEMBL document CHEMBL1136141, “2-Phenyl-5,6-dihydro-2H-thieno[3,2-c]pyrazol-3-ol derivatives as new inhibitors of bacterial cell wall biosynthesis” (Bioorg Med Chem Lett, 2003).
Values after ≈ are worked out from the molar mass of the structure shown.

Legend:
Enterococcus faecalis [1] = assay: Minimum inhibitory activity against Enterococcus faecalis GC 4555 (ATCC); format: functional
[2] = Minimum inhibitory activity in presence of 4% bovine serum albumin against Streptococcus pneumoniae GC1894 (PRSP); format: functional
Staphylococcus aureus [3] = assay: Minimum inhibitory activity against Staphylococcus aureus GC 4543 (MSSA); format: functional
[4] = target: T1, UDP-N-acetylmuramate--L-alanine ligase (Staphylococcus aureus, UniProt O31211); assay: In vitro inhibitory activity against Staphylococcus aureus UDP-N-acetylmuramoyl-L-alanine synthetase
T1 sequence (O31211 whole entry): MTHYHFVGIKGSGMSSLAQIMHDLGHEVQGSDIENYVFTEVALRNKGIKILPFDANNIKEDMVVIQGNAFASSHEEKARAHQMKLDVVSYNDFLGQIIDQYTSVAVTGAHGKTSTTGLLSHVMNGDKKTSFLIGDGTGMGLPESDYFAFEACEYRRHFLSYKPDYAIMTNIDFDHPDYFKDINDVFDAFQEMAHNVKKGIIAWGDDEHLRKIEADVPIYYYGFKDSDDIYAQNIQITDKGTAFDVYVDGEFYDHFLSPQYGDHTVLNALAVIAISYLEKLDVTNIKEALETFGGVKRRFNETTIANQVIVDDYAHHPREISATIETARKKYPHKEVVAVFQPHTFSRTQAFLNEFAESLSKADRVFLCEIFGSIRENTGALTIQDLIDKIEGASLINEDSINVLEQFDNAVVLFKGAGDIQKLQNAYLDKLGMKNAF

[5] = Minimum inhibitory activity against Streptococcus pneumoniae GC1894 (PRSP); format: functional
[6] = target: T2, UDP-N-acetylmuramoylalanine--D-glutamate ligase (Staphylococcus aureus, UniProt P0A091); assay: In vitro inhibitory activity against Staphylococcus aureus UDP-N-acetylmuramoyl-L-alanyl-D-glutamate synthetase
T2 sequence (P0A091 whole entry): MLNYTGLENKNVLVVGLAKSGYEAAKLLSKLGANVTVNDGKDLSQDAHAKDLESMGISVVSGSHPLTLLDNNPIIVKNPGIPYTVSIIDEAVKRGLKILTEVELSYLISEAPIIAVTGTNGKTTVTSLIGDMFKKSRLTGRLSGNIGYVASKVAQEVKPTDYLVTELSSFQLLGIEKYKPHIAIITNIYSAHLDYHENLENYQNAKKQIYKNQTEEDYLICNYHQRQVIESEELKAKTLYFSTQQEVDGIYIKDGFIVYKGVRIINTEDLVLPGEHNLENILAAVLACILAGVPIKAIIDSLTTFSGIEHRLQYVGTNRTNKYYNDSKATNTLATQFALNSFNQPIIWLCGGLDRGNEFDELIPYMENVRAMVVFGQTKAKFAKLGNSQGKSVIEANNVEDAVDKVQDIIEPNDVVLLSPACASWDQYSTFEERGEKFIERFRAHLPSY

[7] = target: T3, UDP-N-acetylenolpyruvoylglucosamine reductase (Staphylococcus aureus, UniProt P61431); assay: In vitro inhibitory activity against Staphylococcus aureus UDP-N-acetylmuramate dehydrogenase
T3 sequence (P61431 whole entry): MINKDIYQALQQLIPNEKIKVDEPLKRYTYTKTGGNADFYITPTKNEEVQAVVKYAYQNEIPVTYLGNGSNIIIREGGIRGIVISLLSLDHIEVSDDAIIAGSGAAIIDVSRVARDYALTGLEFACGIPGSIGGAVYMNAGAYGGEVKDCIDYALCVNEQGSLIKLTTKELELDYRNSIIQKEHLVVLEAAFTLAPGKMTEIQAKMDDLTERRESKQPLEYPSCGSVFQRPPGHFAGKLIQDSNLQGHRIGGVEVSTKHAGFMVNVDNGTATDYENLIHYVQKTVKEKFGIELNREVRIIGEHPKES

Escherichia coli [8] = assay: Minimum inhibitory activity against Escherichia coli GC 4560; format: functional
Enterococcus faecalis [9] = assay: Minimum inhibitory activity against Enterococcus faecalis GC 2242 (VRE); format: functional
Staphylococcus aureus [10] = assay: Minimum inhibitory activity against Staphylococcus aureus GC 2216 (ATCC); format: functional
Staphylococcus aureus [11] = assay: Minimum inhibitory activity against Staphylococcus aureus GC 1131 (MRSA); format: functional
[12] = Minimum inhibitory activity against MSCNS GC 646; format: functional; conditions: Staphylococcus
Escherichia coli [13] = assay: Minimum inhibitory activity against Escherichia coli GC 4559; format: functional
[14] = Partition coefficient (logP); format: physicochemical; conditions: octanol/water
Bacteria = assay: Minimum inhibitory activity against gram negative bacteria; format: functional

| Compound | MIC (Enterococcus faecalis [1]) | MIC [2] | MIC (Staphylococcus aureus [3]) | IC50 [4] | MIC [5] | IC50 [6] | IC50 [7] | MIC (Escherichia coli [8]) | MIC (Enterococcus faecalis [9]) | MIC (Staphylococcus aureus [10]) | MIC (Staphylococcus aureus [11]) | MIC [12] | MIC (Escherichia coli [13]) | logP [14] | MIC (Bacteria) |
| --- | --- | --- | --- | --- | --- | --- | --- | --- | --- | --- | --- | --- | --- | --- | --- |
| NC(=O)c1cccc(-n2nc3c(c2O)SCC3)c1 | 64 µg/mL (≈ 245 µM) | > 128 µg/mL | 64 µg/mL (≈ 245 µM) | > 95.7 µM | 8 µg/mL (≈ 30.6 µM) | 47.8 µM | > 95.7 µM | 128 µg/mL (≈ 490 µM) | 32 µg/mL (≈ 122 µM) | 128 µg/mL (≈ 490 µM) | 128 µg/mL (≈ 490 µM) | > 128 µg/mL | > 128 µg/mL | 1.41 |  |
| Oc1c2c(nn1-c1ccc(Cl)c(Cl)c1)CSC2 |  |  |  |  |  |  | > 87.1 µM |  |  |  |  |  |  |  | 32 µg/mL (≈ 111 µM) |
| Oc1c2c(nn1-c1ccc(Cl)cc1)COC2 |  |  |  |  |  |  | > 106 µM |  |  |  |  |  |  |  | > 128 µg/mL |
| Oc1c2c(nn1-c1ccc(Cl)cc1)CSC2 |  |  |  |  |  |  | 831 µM |  |  |  |  |  |  |  | > 128 µg/mL |
| O=[N+]([O-])c1cccc(-n2nc3c(c2O)SCC3)c1 | 64 µg/mL (≈ 243 µM) | > 128 µg/mL | 32 µg/mL (≈ 122 µM) | 87.7 µM | 4 µg/mL (≈ 15.2 µM) | 34.6 µM | 23.5 µM | > 128 µg/mL | 32 µg/mL (≈ 122 µM) | 16 µg/mL (≈ 60.8 µM) | 32 µg/mL (≈ 122 µM) | 32 µg/mL (≈ 122 µM) | > 128 µg/mL |  |  |
| Oc1c2c(nn1-c1ccc(Cl)c(Cl)c1)CCCC2 |  |  |  |  |  |  | > 88.3 µM |  |  |  |  |  |  |  | > 128 µg/mL |
| [O-][S+]1CCc2nn(-c3ccc(Cl)c(Cl)c3)c(O)c21 (configuration not stated) |  |  |  |  |  |  | 66 µM |  |  |  |  |  |  | 2.01 | > 128 µg/mL |
| O=[N+]([O-])c1ccc(-n2nc3c(c2O)CSCC3)cc1 |  |  |  |  |  |  | > 90.2 µM |  |  |  |  |  |  |  | > 128 µg/mL |

The next lines start with the values.

| MIC (Enterococcus faecalis [1]) | MIC [2] | MIC (Staphylococcus aureus [3]) | IC50 [4] | MIC [5] | IC50 [6] | IC50 [7] | MIC (Escherichia coli [8]) | MIC (Enterococcus faecalis [9]) | MIC (Staphylococcus aureus [10]) | MIC (Staphylococcus aureus [11]) | MIC [12] | MIC (Escherichia coli [13]) | logP [14] | MIC (Bacteria) | Compound |
| --- | --- | --- | --- | --- | --- | --- | --- | --- | --- | --- | --- | --- | --- | --- | --- |
| 32 µg/mL (≈ 122 µM) | > 128 µg/mL | 2 µg/mL (≈ 7.6 µM) | 72.5 µM | 4 µg/mL (≈ 15.2 µM) | 36.1 µM | 21.3 µM | > 128 µg/mL | 64 µg/mL (≈ 243 µM) | 4 µg/mL (≈ 15.2 µM) | 64 µg/mL (≈ 243 µM) | 1 µg/mL (≈ 3.8 µM) | > 128 µg/mL |  |  | O=[N+]([O-])c1ccc(-n2nc3c(c2O)SCC3)cc1 |
| 8 µg/mL (≈ 32.9 µM) | > 128 µg/mL | 16 µg/mL (≈ 65.8 µM) | 54.7 µM | 4 µg/mL (≈ 16.4 µM) | 46.9 µM | 57.5 µM | 64 µg/mL (≈ 263 µM) | 8 µg/mL (≈ 32.9 µM) | 8 µg/mL (≈ 32.9 µM) | 32 µg/mL (≈ 132 µM) | 2 µg/mL (≈ 8.22 µM) | > 128 µg/mL |  |  | N#Cc1cccc(-n2nc3c(c2O)SCC3)c1 |
| 8 µg/mL (≈ 32.9 µM) | > 128 µg/mL | 16 µg/mL (≈ 65.8 µM) | > 103 µM | 4 µg/mL (≈ 16.4 µM) | 49.3 µM | > 103 µM | 64 µg/mL (≈ 263 µM) | 8 µg/mL (≈ 32.9 µM) | 8 µg/mL (≈ 32.9 µM) | 32 µg/mL (≈ 132 µM) | 4 µg/mL (≈ 16.4 µM) | > 128 µg/mL | 2.53 |  | N#Cc1ccc(-n2nc3c(c2O)SCC3)cc1 |
| 16 µg/mL (≈ 63.3 µM) | > 128 µg/mL | 2 µg/mL (≈ 7.91 µM) | 40 µM | 1 µg/mL (≈ 3.96 µM) | 45.5 µM | 28.1 µM | > 128 µg/mL | 16 µg/mL (≈ 63.3 µM) | 2 µg/mL (≈ 7.91 µM) | 16 µg/mL (≈ 63.3 µM) | 4 µg/mL (≈ 15.8 µM) | > 128 µg/mL | 3.06 |  | Oc1c2c(nn1-c1ccc(Cl)cc1)CCS2 |
| 32 µg/mL (≈ 127 µM) | > 128 µg/mL | 32 µg/mL (≈ 127 µM) | 62.5 µM | 2 µg/mL (≈ 7.91 µM) | 32.8 µM | > 98.9 µM | > 128 µg/mL | 8 µg/mL (≈ 31.7 µM) | 8 µg/mL (≈ 31.7 µM) | 32 µg/mL (≈ 127 µM) | 32 µg/mL (≈ 127 µM) | > 128 µg/mL |  |  | Oc1c2c(nn1-c1cccc(Cl)c1)CCS2 |
| > 128 µg/mL | > 128 µg/mL | 128 µg/mL (≈ 466 µM) | > 91.1 µM | 64 µg/mL (≈ 233 µM) | > 91.1 µM | > 91.1 µM | > 128 µg/mL | > 128 µg/mL | > 128 µg/mL | > 128 µg/mL | > 128 µg/mL | > 128 µg/mL |  |  | CC(C)(C)c1ccc(-n2nc3c(c2O)SCC3)cc1 |
| 8 µg/mL (≈ 33.9 µM) | > 128 µg/mL | 4 µg/mL (≈ 16.9 µM) | > 106 µM | 2 µg/mL (≈ 8.46 µM) | > 106 µM | 50.8 µM | 32 µg/mL (≈ 135 µM) | 8 µg/mL (≈ 33.9 µM) | 2 µg/mL (≈ 8.46 µM) | 2 µg/mL (≈ 8.46 µM) | 0.25 µg/mL (≈ 1.06 µM) | > 128 µg/mL |  |  | Oc1c2c(nn1-c1ccc(F)cc1)CCS2 |
| 128 µg/mL (≈ 446 µM) | > 128 µg/mL | 8 µg/mL (≈ 27.9 µM) | 24.4 µM | 4 µg/mL (≈ 13.9 µM) | 48.8 µM | 38.3 µM | 128 µg/mL (≈ 446 µM) | 64 µg/mL (≈ 223 µM) | 8 µg/mL (≈ 27.9 µM) | 32 µg/mL (≈ 111 µM) | 16 µg/mL (≈ 55.7 µM) | > 128 µg/mL | 3.62 |  | Oc1c2c(nn1-c1ccc(Cl)c(Cl)c1)CCS2 |
